From PMC10603992, “Antimicrobial and Adjuvant Potencies of Di-n-alkyl Substituted Diazalariat Ethers” (Antibiotics, 2023)
≈ marks a conversion by molar mass, not a printed value. Read-outs that look alike come from different tables or passages of the source.

What was measured:
[1] = tested on: K12 E. coli; experiment: MIC against K12 E. coli; format: cell-based; details: Escherichia coli
[2] = tested on: S. aureus 1199B; experiment: MIC against S. aureus 1199B; format: cell-based, Staphylococcus aureus; details: Staphylococcus aureus, 1199B, read-out: MIC S. aureus 1199B, MHII media, 90% growth inhibition
[3] = no reference given, cited from earlier work
[4] = tested on: DH5α E. coli; experiment: MIC against DH5α E. coli; format: cell-based; details: Escherichia coli, no additional antimicrobial; MICs in table limited to […]; read-out: Minimum inhibitory concentration against DH5α E. coli
[5] = tested on: DH5α E. coli; design: method as in PMID 15858645; details: free bases, previously reported data; cited from earlier work

CCn1cc(C(=O)O)c(=O)c2cc(F)c(N3CCNCC3)cc21 [Norfloxacin, reference compound]
MIC ([1]; MHII media, 90% growth inhibition, read-out: MIC K12 E. coli): 0.125 µM (≈ 0.0399 µg/mL)
MIC [2]: 64 µM (≈ 20.4 µg/mL)

CC1(C)S[C@@H]2[C@H](NC(=O)Cc3ccccc3)C(=O)N2[C@H]1C(=O)O [Penicillin G, penicillin G]
pKa of the carboxyl groups ([3]; general value): 2.6–2.8

CCCCN1CCOCCOCCN(CCCC)CCOCCOCC1 [di-n-butyl-diaza-18-crown-6]
pK1 of macro ring nitrogen atoms [3]: 9.40
pK2 of macro ring nitrogen atoms [3]: 7.97

CCCCCCCC[N+]1(C)CCOCCOCC[N+](C)(CCCCCCCC)CCOCCOCC1 (stereo not shown) [n-octyl LE•MeI]
MIC [4]: > 128 µM

CCCCCCCCCCCCCCN1CCOCCOCCN(CCCCCCCCCCCCCC)CCOCCOCC1 [n-tetradecyl LE]
Minimum inhibitory concentration against DH5α E. coli [5]: >128 µM
MIC ([1]; read-out: MIC K12 E. coli, MHII media, 90% growth inhibition): ≥ 128 µM

CCCCCCCCCCCCCC[N+]1(C)CCOCCOCC[N+](C)(CCCCCCCCCCCCCC)CCOCCOCC1 (stereo not shown) [n-tetradecyl LE•MeI]
MIC [4]: > 128 µM

CCCCCCCCCCCN1CCOCCOCCN(CCCCCCCCCCC)CCOCCOCC1 [n-undecyl LE, N,N′-Di-n-undecyl-4,13-diaza-18-crown-6]
Minimum inhibitory concentration against DH5α E. coli [5]: 20 µM (≈ 11.4 µg/mL)
